Test results taken from patent US10112951B2, “PDE1 inhibitor” (Eli Lilly and Company, priority 2016, dated 2018).

Key:
Type in all cases: biochemical
PDE1A = molecular target: T1, PDE1A (Homo sapiens, UniProt P54750); experiment: Ca2+-calmodulin dependent PDE enzyme assay (SPA), PDE1A; conditions: [3H]cAMP 47 nM; enzyme 0.25 nM; Ca2+/calmodulin buffer pH 7.5; read-out: IC50 (nM) of Example 1, PDE 1A
T1 construct: full-length human PDE1A (NP_001003683.1); His (N); made in house; host or cells: Sf9 (baculovirus, pFastBac1)
Excerpt: (§1) The nucleotide sequences encoding full-length human PDE1A (NP_001003683.1), PDE1C (NP_005011.1), PDE5A (NP_001074.2), PDE7B (NP_061818.1) and PDE9A (NP_002597.1) are inserted into pFastBac1 (Invitrogen) vector with an N-terminal HIS tag. The nucleotide sequences encoding full-length human PDE4D (NP_006194.2) and catalytic domain (residue 641-1141) of PDE3A (NP_000912.3) are inserted into pFastBac1 (Invitrogen) vector with a C-terminal HIS tag. The nucleotide sequences encoding full-length human PDE8A (NP_002596.1) and PDE11A (AAI12394.1) are inserted into pFastBac1 (Invitrogen) vector with an N-terminal Flag tag. The nucleotide sequences encoding full-length human PDE10A (AAD32595.1) are inserted into pFastBac1 (Invitrogen) vector with a C-terminal Flag-His tag. The nucleotide sequences encoding full-length human PDE6A (NP_000431.2) and PDE6B (AAH00249.1) are inserted into pFastBacDual (Invitrogen) vector with an N-terminal HIS tag and N-terminal Flag tag, respectively, for production of PDE6A/6B dimer. […]
(§2) All 3′, 5′ cyclic nucleotide phosphodiesterase (PDE) enzyme activities are measured with a radiometric enzyme assay based on SPA detection system (scintillation proximity assay). […] Samples are read 12 hours later in a MICROBETA™ TRILUX® Counter. […] IC50 values are calculated by plotting the normalized data vs. log [compound] and fitting the data using a four parameter logistic equation. […]

PDE1B = molecular target: T2, PDE1B (Homo sapiens, UniProt Q01064); experiment: Ca2+-calmodulin dependent PDE enzyme assay (SPA), PDE1B; conditions: [3H]cAMP 47 nM; enzyme 0.074 nM; Ca2+/calmodulin buffer pH 7.5; read-out: IC50 (nM) of Example 1, PDE 1B
T2 construct: full-length human PDE1B (NP_000915.1); His (C); made in house; host or cells: Sf9 (pIEX4)
Excerpt: as §1, §2

PDE1C = molecular target: T3, PDE1C (Homo sapiens, UniProt Q14123); experiment: Ca2+-calmodulin dependent PDE enzyme assay (SPA), PDE1C; conditions: [3H]cAMP 47 nM; enzyme 0.0012 nM; Ca2+/calmodulin buffer pH 7.5; read-out: IC50 (nM) of Example 1, PDE 1C
T3 construct: full-length human PDE1A (NP_001003683.1), PDE1C (NP_005011.1); His (N); made in house; host or cells: Sf9 (baculovirus, pFastBac1)
Excerpt: as §1, §2

PDE3A (catalytic domain) = molecular target: T4, PDE3A (catalytic domain) (Homo sapiens, UniProt Q14432); experiment: PDE enzyme assay using [3H]cAMP as substrate, PDE3A; conditions: [3H]cAMP 47 nM, enzyme 0.008 nM, read-out: IC50 (nM) of Example 1, PDE3A
T4 construct: catalytic domain (residue 641-1141) of PDE3A (NP_000912.3); His (C); made in house; host or cells: Sf9 (baculovirus, pFastBac1)
Excerpt: as §1, with “tag.” for “tag. The nucleotide sequences encoding full-length human PDE6A (NP_000431.2) and PDE6B (AAH00249.1) are inserted into pFastBacDual (Invitrogen) vector with an N-terminal HIS tag and N-terminal Flag tag, respectively, for production of PDE6A/6B dimer.”
(§3) All 3′, 5′ cyclic nucleotide phosphodiesterase (PDE) enzyme activities are measured with a radiometric enzyme assay based on SPA detection system (scintillation proximity assay). […] Samples are read 12 hours later in a MICROBETA™ TRILUX® Counter. […] IC50 values are calculated by plotting the normalized data vs. log [compound] and fitting the data using a four parameter logistic equation.
(§4) The following phosphodiesterase activities are measured using [^3H]cAMP as reaction substrate: PDE3A (catalytic domain), PDE4D, PDE7B and PDE8A. […]

PDE4D = molecular target: T5, PDE4D (Homo sapiens, UniProt Q08499); experiment: PDE enzyme assay using [3H]cAMP as substrate, PDE4D; conditions: [3H]cAMP 47 nM; enzyme 0.021 nM; read-out: IC50 (nM) of Example 1, PDE4D
T5 construct: full-length human PDE4D (NP_006194.2); His (C); made in house; host or cells: Sf9 (baculovirus, pFastBac1)
Excerpt: as §1, with “tag.” for “tag. The nucleotide sequences encoding full-length human PDE6A (NP_000431.2) and PDE6B (AAH00249.1) are inserted into pFastBacDual (Invitrogen) vector with an N-terminal HIS tag and N-terminal Flag tag, respectively, for production of PDE6A/6B dimer.”
as §3, §4

PDE7B = molecular target: T6, PDE7B (Homo sapiens, UniProt Q9NP56); experiment: PDE enzyme assay using [3H]cAMP as substrate, PDE7B; conditions: [3H]cAMP 47 nM; enzyme 0.5 nM; read-out: IC50 (nM) of Example 1, PDE7B
T6 construct: full-length human PDE1A (NP_001003683.1), PDE1C (NP_005011.1), PDE5A (NP_001074.2), PDE7B (NP_061818.1); His (N); made in house; host or cells: Sf9 (baculovirus, pFastBac1)
Excerpt: as §1, with “tag.” for “tag. The nucleotide sequences encoding full-length human PDE6A (NP_000431.2) and PDE6B (AAH00249.1) are inserted into pFastBacDual (Invitrogen) vector with an N-terminal HIS tag and N-terminal Flag tag, respectively, for production of PDE6A/6B dimer.”
as §3, §4

PDE8A = molecular target: T7, PDE8A (Homo sapiens, UniProt O60658); experiment: PDE enzyme assay using [3H]cAMP as substrate, PDE8A; conditions: [3H]cAMP 47 nM; enzyme 0.06 nM; read-out: IC50 (nM) of Example 1, PDE8A
T7 construct: full-length human PDE8A (NP_002596.1); Flag (N); made in house; host or cells: Sf9 (baculovirus, pFastBac1)
Excerpt: as §1, with “tag.” for “tag. The nucleotide sequences encoding full-length human PDE6A (NP_000431.2) and PDE6B (AAH00249.1) are inserted into pFastBacDual (Invitrogen) vector with an N-terminal HIS tag and N-terminal Flag tag, respectively, for production of PDE6A/6B dimer.”
as §3, §4

PDE2A = molecular target: T8, PDE2A (Homo sapiens, UniProt O00408); experiment: PDE enzyme assay using [3H]cGMP as substrate, PDE2A; conditions: [3H]cGMP 80 nM; enzyme 0.2 nM; read-out: IC50 (nM) of Example 1, PDE2A
T8 construct: full-length human PDE1B (NP_000915.1) and PDE2A (NP_002590.1); His (C); made in house; host or cells: Sf9 (pIEX4)
Excerpt: as §1, with “tag.” for “tag. The nucleotide sequences encoding full-length human PDE6A (NP_000431.2) and PDE6B (AAH00249.1) are inserted into pFastBacDual (Invitrogen) vector with an N-terminal HIS tag and N-terminal Flag tag, respectively, for production of PDE6A/6B dimer.”
as §3
(§5) The following phosphodiesterase activities are measured using [^3H]cGMP as reaction substrate: PDE2A, PDE5A, PDE6A/6B, PDE9A, PDE10A and PDE11A. […]

PDE5A = molecular target: T9, PDE5A (Homo sapiens, UniProt O76074); experiment: PDE enzyme assay using [3H]cGMP as substrate, PDE5A; conditions: [3H]cGMP 80 nM; enzyme 0.002 nM; read-out: IC50 (nM) of Example 1, PDE5A
T9 construct: full-length human PDE1A (NP_001003683.1), PDE1C (NP_005011.1), PDE5A (NP_001074.2); His (N); made in house; host or cells: Sf9 (baculovirus, pFastBac1)
Excerpt: as §1, with “tag.” for “tag. The nucleotide sequences encoding full-length human PDE6A (NP_000431.2) and PDE6B (AAH00249.1) are inserted into pFastBacDual (Invitrogen) vector with an N-terminal HIS tag and N-terminal Flag tag, respectively, for production of PDE6A/6B dimer.”
as §3, §5

PDE6AB (PDE6A/6B dimer) = molecular target: T10, PDE6AB (PDE6A/6B dimer) (Homo sapiens, UniProt P16499+P35913); experiment: PDE enzyme assay using [3H]cGMP as substrate, PDE6AB; conditions: [3H]cGMP 80 nM; enzyme 5 nM; read-out: IC50 (nM) of Example 1, PDE 6AB
T10 construct: full-length human PDE6A (NP_000431.2); full-length human PDE6A (NP_000431.2) and PDE6B (AAH00249.1); His (N); Flag (N); made in house; host or cells: Sf9 (baculovirus, pFastBacDual)
Excerpt: as §1, with “tag.” for “tag. The nucleotide sequences encoding full-length human PDE6A (NP_000431.2) and PDE6B (AAH00249.1) are inserted into pFastBacDual (Invitrogen) vector with an N-terminal HIS tag and N-terminal Flag tag, respectively, for production of PDE6A/6B dimer.”
as §3, §5

PDE9A = molecular target: T11, PDE9A (Homo sapiens, UniProt O76083); experiment: PDE enzyme assay using [3H]cGMP as substrate, PDE9A; conditions: [3H]cGMP 20 nM; enzyme 1 nM; read-out: IC50 (nM) of Example 1, PDE9A
T11 construct: full-length human PDE1A (NP_001003683.1), PDE1C (NP_005011.1), PDE5A (NP_001074.2), PDE7B (NP_061818.1) and PDE9A (NP_002597.1); His (N); made in house; host or cells: Sf9 (baculovirus, pFastBac1)
Excerpt: as §1, with “tag.” for “tag. The nucleotide sequences encoding full-length human PDE6A (NP_000431.2) and PDE6B (AAH00249.1) are inserted into pFastBacDual (Invitrogen) vector with an N-terminal HIS tag and N-terminal Flag tag, respectively, for production of PDE6A/6B dimer.”
as §3, §5

PDE10A = molecular target: T12, PDE10A (Homo sapiens, UniProt Q9Y233); experiment: PDE enzyme assay using [3H]cGMP as substrate, PDE10A; conditions: [3H]cGMP 80 nM; enzyme 0.03 nM; read-out: IC50 (nM) of Example 1, PDE10A
T12 construct: full-length human PDE10A (AAD32595.1); Flag-His (C); made in house; host or cells: Sf9 (baculovirus, pFastBac1)
Excerpt: as §1, with “tag.” for “tag. The nucleotide sequences encoding full-length human PDE6A (NP_000431.2) and PDE6B (AAH00249.1) are inserted into pFastBacDual (Invitrogen) vector with an N-terminal HIS tag and N-terminal Flag tag, respectively, for production of PDE6A/6B dimer.”
as §3, §5

PDE11A = molecular target: T13, PDE11A (Homo sapiens, UniProt Q9HCR9); experiment: PDE enzyme assay using [3H]cGMP as substrate, PDE11A; conditions: [3H]cGMP 80 nM; enzyme 0.03 nM; read-out: IC50 (nM) of Example 1, PDE11A
T13 construct: full-length human PDE8A (NP_002596.1) and PDE11A (AAI12394.1); Flag (N); made in house; host or cells: Sf9 (baculovirus, pFastBac1)
Excerpt: as §1, with “tag.” for “tag. The nucleotide sequences encoding full-length human PDE6A (NP_000431.2) and PDE6B (AAH00249.1) are inserted into pFastBacDual (Invitrogen) vector with an N-terminal HIS tag and N-terminal Flag tag, respectively, for production of PDE6A/6B dimer.”
as §3, §5

T4 sequence (Q14432 641-1141): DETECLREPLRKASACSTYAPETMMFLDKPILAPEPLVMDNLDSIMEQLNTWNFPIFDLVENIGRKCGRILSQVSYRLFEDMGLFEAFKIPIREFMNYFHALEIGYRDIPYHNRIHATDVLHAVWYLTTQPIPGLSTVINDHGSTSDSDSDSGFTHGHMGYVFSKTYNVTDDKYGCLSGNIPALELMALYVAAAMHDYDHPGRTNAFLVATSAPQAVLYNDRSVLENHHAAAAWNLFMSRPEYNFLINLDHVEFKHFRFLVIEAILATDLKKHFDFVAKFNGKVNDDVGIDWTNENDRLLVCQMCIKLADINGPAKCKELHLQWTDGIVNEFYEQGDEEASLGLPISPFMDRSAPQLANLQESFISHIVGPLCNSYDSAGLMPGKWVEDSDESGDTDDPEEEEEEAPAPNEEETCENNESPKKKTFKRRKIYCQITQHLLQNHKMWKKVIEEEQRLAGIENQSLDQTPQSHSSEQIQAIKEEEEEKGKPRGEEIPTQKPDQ
T12 sequence (Q9Y233 1-779 isoform Q9Y233-1): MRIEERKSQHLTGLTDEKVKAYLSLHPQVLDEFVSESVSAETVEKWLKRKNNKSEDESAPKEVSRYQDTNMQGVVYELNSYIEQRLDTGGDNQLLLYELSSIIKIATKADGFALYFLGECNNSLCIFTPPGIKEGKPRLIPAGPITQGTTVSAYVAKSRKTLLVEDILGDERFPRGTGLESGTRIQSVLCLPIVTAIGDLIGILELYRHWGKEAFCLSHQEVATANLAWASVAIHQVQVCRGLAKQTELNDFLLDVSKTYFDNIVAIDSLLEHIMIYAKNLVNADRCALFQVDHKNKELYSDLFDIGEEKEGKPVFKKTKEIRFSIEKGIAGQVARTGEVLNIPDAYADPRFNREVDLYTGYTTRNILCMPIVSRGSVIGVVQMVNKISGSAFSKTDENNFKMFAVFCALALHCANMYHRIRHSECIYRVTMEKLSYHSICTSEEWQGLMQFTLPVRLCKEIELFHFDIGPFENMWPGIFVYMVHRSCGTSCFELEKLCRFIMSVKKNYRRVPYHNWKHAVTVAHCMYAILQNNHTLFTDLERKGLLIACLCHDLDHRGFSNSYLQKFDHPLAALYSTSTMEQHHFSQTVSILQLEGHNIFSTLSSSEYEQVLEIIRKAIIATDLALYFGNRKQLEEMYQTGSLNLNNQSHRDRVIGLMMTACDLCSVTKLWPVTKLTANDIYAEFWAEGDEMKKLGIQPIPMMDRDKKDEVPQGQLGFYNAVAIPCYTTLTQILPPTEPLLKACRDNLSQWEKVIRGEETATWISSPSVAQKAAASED
T6 sequence (Q9NP56 whole entry): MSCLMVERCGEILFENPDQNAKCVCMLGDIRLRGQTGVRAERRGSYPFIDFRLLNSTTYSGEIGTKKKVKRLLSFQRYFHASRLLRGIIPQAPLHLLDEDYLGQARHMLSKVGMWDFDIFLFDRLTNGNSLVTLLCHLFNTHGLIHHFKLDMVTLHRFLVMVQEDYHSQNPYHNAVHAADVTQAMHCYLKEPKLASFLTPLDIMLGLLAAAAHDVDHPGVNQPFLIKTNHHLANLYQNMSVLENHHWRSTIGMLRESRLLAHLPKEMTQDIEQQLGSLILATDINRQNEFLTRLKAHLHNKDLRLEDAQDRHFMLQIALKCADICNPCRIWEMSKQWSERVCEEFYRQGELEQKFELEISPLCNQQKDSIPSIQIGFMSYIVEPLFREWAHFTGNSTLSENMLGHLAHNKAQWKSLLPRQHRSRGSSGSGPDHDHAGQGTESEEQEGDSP
T13 sequence (Q9HCR9 whole entry): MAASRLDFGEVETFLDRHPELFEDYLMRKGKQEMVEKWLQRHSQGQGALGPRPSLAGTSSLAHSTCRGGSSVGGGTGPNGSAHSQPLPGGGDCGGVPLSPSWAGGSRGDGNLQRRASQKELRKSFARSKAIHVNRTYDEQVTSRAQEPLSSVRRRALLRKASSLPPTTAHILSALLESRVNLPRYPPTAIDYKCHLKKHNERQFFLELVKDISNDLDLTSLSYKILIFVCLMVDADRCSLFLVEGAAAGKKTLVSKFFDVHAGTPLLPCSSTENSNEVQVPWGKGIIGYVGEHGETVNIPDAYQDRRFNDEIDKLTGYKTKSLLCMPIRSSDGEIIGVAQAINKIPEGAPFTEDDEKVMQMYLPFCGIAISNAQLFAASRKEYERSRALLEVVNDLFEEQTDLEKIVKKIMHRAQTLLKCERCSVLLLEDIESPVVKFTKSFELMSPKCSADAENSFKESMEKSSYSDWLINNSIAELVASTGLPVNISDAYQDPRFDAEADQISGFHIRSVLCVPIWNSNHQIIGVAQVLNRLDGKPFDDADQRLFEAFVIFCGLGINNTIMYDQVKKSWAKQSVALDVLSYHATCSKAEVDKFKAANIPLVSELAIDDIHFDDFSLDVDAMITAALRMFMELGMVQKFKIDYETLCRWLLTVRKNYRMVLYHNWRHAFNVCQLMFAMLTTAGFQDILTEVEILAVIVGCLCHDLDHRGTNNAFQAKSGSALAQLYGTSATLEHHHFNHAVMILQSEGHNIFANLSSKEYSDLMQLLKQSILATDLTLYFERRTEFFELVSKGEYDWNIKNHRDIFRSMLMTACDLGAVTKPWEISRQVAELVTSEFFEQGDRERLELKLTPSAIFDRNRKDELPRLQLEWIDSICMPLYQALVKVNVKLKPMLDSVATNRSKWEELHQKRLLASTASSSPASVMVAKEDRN
T10 sequence (P16499 whole entry): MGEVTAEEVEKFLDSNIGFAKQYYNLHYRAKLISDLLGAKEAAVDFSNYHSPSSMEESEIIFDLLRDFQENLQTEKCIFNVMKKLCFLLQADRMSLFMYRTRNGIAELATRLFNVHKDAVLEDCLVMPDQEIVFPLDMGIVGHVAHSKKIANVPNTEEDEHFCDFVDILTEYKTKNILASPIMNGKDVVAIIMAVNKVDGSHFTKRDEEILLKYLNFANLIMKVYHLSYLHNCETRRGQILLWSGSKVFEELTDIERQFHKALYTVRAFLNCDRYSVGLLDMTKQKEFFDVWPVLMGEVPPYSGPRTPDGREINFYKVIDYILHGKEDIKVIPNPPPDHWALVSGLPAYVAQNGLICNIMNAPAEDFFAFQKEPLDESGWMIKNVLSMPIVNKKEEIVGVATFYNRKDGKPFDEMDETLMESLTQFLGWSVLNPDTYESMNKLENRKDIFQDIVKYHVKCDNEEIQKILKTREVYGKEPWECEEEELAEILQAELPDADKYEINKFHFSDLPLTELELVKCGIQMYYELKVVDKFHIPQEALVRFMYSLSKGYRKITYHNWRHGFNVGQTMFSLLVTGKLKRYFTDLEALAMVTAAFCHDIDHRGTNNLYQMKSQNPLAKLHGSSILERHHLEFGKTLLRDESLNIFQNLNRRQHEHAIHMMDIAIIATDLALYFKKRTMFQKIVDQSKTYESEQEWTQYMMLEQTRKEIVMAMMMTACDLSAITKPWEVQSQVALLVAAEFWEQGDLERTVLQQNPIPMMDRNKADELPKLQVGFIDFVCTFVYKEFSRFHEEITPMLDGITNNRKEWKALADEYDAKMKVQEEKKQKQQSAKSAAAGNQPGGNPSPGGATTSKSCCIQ
T10 sequence (P35913 1-853 isoform P35913-2): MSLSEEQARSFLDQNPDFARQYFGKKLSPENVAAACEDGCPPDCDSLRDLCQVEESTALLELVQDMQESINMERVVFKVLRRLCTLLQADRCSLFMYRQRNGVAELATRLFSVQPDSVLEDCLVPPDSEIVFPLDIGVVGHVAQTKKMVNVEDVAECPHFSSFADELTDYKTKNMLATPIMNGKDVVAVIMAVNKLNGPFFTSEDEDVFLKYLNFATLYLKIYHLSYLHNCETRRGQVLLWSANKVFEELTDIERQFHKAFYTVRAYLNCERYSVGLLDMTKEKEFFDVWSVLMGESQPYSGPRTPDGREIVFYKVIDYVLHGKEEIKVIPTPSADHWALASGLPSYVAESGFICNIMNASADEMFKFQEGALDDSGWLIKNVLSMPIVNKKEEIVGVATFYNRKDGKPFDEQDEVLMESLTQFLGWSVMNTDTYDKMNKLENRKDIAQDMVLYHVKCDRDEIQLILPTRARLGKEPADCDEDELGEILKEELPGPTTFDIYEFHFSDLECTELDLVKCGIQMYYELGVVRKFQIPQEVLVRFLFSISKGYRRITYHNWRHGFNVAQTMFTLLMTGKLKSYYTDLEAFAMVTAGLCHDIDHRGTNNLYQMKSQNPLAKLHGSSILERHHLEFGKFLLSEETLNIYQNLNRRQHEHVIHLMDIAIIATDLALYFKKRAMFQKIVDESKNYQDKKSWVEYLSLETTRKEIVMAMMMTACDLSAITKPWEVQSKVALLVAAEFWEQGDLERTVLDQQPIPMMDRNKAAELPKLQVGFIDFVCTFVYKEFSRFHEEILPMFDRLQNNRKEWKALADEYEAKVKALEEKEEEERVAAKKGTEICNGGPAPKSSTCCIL
T5 sequence (Q08499 1-673 isoform Q08499-2): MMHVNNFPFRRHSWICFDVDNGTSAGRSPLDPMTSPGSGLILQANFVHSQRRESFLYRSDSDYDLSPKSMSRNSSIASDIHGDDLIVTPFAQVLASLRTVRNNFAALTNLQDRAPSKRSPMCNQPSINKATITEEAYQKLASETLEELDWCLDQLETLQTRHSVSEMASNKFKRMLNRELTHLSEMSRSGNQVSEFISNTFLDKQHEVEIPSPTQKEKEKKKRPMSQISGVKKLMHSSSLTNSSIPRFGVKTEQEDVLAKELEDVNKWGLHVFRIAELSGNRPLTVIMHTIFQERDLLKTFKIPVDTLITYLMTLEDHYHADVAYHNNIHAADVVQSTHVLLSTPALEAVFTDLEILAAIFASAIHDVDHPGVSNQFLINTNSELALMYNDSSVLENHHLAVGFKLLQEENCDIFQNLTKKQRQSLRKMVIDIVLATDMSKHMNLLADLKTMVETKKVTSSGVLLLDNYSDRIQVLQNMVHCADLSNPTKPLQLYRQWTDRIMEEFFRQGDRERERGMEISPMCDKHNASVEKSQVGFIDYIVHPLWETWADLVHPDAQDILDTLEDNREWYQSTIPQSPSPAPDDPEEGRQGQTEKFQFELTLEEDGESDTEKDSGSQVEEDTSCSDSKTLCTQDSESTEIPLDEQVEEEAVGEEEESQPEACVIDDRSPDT

IC50 (PDE1A): 3.41 nM
IC50 (PDE1B): 4.91 nM
IC50 (PDE1C): 3.05 nM
IC50 (PDE3A (catalytic domain)): > 100000 nM
IC50 (PDE4D): 7060 nM
IC50 (PDE7B): 2180 nM
IC50 (PDE8A): > 10000 nM
IC50 (PDE2A): > 10000 nM
IC50 (PDE5A): > 10000 nM
IC50 (PDE6AB (PDE6A/6B dimer)): > 10000 nM
IC50 (PDE9A): > 10000 nM
IC50 (PDE10A): > 10000 nM
IC50 (PDE11A): 2970 nM
SMILES: O=c1c2nnc(C3(C4CC4)CC3)n2c2c(n1CC1CC1)CCCC2 [Example 1, 1-(1-cyclopropylcyclopropyl)-5-(cyclopropylmethyl)-6,7,8,9-tetrahydro-[1,2,4]triazolo[4,3-a]quinoxalin-4-one]
